Several values for one entry are separate records, joined by “and”; a condition that tells them apart may be missing. Identical values can stand only once.
What was measured:
Experiment in all cases: radiometric filter-binding kinase assay, Kinase HotSpot
Settings in all cases: compound 0.5 µM; ATP 10 µM
JAK2 JH1 JH2 (human) = JAK2 JH1 JH2 (human) (UniProt O60674)
DSTYK (human) = DSTYK (human) (UniProt Q6XUX3)
TAOK1 (human) = TAOK1 (human) (UniProt Q7L7X3)
MAP3K10 (human) = MAP3K10 (human) (UniProt Q02779)
STK25 (human) = STK25 (human) (UniProt O00506)
PLK3 (human) = PLK3 (human) (UniProt Q9H4B4)
Chain of PLK3 (human) (Q9H4B4 whole entry, looked up): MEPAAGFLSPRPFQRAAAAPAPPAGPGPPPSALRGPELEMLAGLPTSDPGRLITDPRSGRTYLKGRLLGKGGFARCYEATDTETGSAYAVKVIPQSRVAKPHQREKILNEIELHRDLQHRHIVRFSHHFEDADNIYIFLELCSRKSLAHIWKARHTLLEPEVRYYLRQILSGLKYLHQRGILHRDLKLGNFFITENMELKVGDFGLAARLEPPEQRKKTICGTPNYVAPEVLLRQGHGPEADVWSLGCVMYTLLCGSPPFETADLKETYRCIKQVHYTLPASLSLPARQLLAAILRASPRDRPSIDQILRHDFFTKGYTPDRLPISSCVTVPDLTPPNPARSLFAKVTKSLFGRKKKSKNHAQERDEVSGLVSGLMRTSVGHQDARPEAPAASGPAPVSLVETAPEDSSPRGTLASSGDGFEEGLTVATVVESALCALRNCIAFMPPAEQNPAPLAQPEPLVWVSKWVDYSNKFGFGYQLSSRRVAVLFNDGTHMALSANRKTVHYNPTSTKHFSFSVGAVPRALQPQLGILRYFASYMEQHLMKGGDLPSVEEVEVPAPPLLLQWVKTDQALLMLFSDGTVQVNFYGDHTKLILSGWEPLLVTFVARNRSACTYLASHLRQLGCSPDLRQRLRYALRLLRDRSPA

PIM3 (human) = PIM3 (human) (UniProt Q86V86)
ERBB2 (human) = ERBB2 (human) (UniProt P04626)
ULK2 (human) = ULK2 (human) (UniProt Q8IYT8)
PAK7 (human) = PAK7 (human) (UniProt Q9P286)
WEE1 (human) = WEE1 (human) (UniProt P30291)
ADRBK1 (human) = ADRBK1 (human) (UniProt P25098)
Chain of ADRBK1 (human) (P25098 whole entry, looked up): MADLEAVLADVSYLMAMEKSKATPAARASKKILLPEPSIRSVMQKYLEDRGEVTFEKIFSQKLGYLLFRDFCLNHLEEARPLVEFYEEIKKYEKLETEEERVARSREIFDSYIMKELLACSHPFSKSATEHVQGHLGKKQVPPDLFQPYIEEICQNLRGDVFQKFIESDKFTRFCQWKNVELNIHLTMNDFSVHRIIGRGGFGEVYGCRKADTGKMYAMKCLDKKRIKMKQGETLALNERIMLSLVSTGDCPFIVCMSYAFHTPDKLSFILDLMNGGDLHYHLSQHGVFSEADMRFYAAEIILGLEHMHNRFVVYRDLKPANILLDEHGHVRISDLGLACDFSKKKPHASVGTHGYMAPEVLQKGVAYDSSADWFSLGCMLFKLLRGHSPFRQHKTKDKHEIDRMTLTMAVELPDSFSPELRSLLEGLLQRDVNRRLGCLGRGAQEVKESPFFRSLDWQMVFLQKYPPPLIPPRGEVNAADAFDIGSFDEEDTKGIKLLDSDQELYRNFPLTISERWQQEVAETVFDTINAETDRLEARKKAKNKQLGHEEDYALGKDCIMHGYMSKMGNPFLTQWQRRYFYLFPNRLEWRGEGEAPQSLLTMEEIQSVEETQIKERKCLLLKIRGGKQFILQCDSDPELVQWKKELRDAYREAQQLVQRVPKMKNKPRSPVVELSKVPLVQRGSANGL

ABL2 (human) = ABL2 (human) (UniProt P42684)
SRMS (human) = SRMS (human) (UniProt Q9H3Y6)
INSR (human) = INSR (human) (UniProt P06213)
CHEK1 (human) = CHEK1 (human) (UniProt O14757)
PRKG1 (human) = PRKG1 (human) (UniProt Q13976)
Chain of PRKG1 (human) (Q13976 whole entry, looked up): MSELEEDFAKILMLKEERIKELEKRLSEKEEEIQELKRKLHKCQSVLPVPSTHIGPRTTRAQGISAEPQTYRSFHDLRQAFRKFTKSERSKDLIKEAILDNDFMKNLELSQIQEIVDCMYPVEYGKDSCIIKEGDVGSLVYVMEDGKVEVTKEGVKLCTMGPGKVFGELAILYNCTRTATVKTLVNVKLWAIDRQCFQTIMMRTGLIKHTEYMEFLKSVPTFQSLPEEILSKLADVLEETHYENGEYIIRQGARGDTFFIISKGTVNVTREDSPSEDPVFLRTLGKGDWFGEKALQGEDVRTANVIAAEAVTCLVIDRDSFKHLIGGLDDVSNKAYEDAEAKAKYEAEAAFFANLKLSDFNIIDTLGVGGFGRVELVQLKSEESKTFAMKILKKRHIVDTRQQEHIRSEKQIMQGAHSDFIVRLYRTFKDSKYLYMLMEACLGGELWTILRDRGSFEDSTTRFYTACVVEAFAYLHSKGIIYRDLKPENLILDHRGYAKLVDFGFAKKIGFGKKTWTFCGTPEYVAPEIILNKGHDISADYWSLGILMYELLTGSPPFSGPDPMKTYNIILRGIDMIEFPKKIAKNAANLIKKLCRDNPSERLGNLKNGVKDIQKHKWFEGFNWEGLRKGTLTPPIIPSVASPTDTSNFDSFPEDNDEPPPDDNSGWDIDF

TYRO3 (human) = TYRO3 (human) (UniProt Q06418)
CDC42BPA (human) = CDC42BPA (human) (UniProt Q5VT25)
DAPK2 (human) = DAPK2 (human) (UniProt Q9UIK4)
OXSR1 (human) = OXSR1 (human) (UniProt O95747)
Chain of OXSR1 (human) (O95747 whole entry, looked up): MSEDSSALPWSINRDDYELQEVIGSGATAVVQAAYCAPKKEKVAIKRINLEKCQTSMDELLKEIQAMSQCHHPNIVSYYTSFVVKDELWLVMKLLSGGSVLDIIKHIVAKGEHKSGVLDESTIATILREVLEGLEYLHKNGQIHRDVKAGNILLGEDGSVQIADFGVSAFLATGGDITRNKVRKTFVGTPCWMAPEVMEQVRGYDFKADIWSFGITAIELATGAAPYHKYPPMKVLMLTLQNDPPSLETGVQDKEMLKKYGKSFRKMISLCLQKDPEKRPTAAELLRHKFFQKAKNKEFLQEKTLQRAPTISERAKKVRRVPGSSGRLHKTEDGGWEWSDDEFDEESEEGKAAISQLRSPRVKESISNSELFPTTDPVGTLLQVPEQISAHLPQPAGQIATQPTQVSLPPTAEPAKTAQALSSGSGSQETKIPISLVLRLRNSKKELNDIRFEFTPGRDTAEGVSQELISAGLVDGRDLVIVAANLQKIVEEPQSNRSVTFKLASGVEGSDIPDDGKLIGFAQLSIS

CAMKK2 (human) = CAMKK2 (human) (UniProt Q96RR4)
CAMK1D (human) = CAMK1D (human) (UniProt Q8IU85)
RPS6KA4 KD2 (human) = RPS6KA4 KD2 (human) (UniProt O75676)
LCK (human) = LCK (human) (UniProt P06239)
Chain of LCK (human) (P06239 whole entry, looked up): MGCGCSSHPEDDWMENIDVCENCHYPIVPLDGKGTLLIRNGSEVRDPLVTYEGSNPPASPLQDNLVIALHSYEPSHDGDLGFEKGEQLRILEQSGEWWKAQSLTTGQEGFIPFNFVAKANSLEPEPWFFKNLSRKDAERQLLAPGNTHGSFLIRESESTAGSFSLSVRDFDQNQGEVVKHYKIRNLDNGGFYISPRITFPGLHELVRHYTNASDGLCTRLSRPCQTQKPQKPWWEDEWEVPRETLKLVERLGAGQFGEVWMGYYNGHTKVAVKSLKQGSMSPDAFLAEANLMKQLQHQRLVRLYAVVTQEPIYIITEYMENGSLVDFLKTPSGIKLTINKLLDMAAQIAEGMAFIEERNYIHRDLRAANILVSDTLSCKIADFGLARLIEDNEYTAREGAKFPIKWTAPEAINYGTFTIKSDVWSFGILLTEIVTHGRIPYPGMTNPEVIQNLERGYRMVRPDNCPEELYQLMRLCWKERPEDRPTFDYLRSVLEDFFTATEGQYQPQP

YES1 (human) = YES1 (human) (UniProt P07947)
Chain of YES1 (human) (P07947 whole entry, looked up): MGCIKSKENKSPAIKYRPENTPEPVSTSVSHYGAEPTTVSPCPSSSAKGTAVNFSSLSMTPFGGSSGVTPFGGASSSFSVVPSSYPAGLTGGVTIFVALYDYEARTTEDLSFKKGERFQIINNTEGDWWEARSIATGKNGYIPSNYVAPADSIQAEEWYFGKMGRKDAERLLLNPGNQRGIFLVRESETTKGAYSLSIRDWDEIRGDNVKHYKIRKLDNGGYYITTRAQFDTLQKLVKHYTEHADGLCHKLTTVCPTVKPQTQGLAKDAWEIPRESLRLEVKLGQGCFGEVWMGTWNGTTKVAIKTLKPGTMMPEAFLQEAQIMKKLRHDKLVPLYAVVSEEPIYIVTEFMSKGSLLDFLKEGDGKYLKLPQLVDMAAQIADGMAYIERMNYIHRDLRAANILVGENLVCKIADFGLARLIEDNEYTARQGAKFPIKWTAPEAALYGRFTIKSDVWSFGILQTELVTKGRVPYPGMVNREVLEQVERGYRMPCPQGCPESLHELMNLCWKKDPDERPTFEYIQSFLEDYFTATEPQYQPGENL

RPS6KA1 KD1 KD2 (human) = RPS6KA1 KD1 KD2 (human) (UniProt Q15418)
Chain of RPS6KA1 KD1 KD2 (human) (Q15418 whole entry, looked up): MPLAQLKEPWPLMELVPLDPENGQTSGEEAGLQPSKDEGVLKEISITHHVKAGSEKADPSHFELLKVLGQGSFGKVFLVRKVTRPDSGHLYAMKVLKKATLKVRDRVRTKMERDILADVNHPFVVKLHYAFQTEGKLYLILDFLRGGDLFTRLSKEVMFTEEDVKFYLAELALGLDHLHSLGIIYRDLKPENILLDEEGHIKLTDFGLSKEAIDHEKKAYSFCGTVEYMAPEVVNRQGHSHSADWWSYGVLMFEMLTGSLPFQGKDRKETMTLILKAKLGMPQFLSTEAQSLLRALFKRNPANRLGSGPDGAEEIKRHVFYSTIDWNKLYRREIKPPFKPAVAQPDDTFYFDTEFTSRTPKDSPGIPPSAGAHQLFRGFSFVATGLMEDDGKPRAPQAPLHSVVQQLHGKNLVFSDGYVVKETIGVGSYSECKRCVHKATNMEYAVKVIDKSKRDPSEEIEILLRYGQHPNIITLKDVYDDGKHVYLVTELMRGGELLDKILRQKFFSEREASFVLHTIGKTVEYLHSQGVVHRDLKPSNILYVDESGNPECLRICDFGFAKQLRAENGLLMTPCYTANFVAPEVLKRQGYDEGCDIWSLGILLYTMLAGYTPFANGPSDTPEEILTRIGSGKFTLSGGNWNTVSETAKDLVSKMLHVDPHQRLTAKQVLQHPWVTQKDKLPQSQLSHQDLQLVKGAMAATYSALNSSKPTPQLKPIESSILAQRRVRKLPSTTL

FGR (human) = FGR (human) (UniProt P09769)
EPHB4 (human) = EPHB4 (human) (UniProt P54760)
ADRBK2 (human) = ADRBK2 (human) (UniProt P35626)
NUAK1 (human) = NUAK1 (human) (UniProt O60285)
DYRK1B (human) = DYRK1B (human) (UniProt Q9Y463)
Chain of DYRK1B (human) (Q9Y463 whole entry, looked up): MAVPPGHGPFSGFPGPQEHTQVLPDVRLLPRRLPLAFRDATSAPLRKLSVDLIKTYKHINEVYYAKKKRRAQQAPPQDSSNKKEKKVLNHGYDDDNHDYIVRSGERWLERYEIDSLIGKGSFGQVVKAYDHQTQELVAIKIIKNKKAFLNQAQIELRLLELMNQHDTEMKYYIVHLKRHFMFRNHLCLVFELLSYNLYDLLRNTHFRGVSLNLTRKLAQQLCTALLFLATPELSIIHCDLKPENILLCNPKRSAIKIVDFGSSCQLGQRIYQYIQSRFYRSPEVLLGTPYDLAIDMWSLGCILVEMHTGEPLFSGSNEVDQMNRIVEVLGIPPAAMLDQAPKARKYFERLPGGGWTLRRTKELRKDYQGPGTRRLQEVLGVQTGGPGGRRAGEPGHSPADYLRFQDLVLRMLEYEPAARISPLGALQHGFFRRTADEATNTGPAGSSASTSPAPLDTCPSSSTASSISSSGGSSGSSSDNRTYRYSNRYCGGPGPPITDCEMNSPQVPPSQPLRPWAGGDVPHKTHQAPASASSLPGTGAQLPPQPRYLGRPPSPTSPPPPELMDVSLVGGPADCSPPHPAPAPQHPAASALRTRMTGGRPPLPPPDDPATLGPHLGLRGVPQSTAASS

LYN (human) = LYN (human) (UniProt P07948)
BRAF (human) = BRAF (human) (UniProt P15056)
NTRK2 (human) = NTRK2 (human) (UniProt Q16620)
EGFR (human) = EGFR (human) (UniProt P00533)

Row | Compound | residual activity (JAK2 JH1 JH2 (human)) [%] | residual activity (DSTYK (human)) [%] | residual activity (MAP3K10 (human)) [%] | residual activity (STK25 (human)) [%] | residual activity (PLK3 (human)) [%] | residual activity (PIM3 (human)) [%] | residual activity (ERBB2 (human)) [%] | residual activity (ULK2 (human)) [%] | residual activity (PAK7 (human)) [%] | residual activity (WEE1 (human)) [%] | residual activity (ADRBK1 (human)) [%] | residual activity (ABL2 (human)) [%] | residual activity (SRMS (human)) [%] | residual activity (INSR (human)) [%] | residual activity (CHEK1 (human)) [%] | residual activity (PRKG1 (human)) | residual activity (TYRO3 (human)) [%] | residual activity (CDC42BPA (human)) [%] | residual activity (DAPK2 (human)) [%] | residual activity (OXSR1 (human)) [%] | also measured
1 | CCCCc1c(-c2ccc(O)cc2)[nH]c2nccnc12 | 77.8 | 88.9 | 74.3 | 91.4 | 90.6 | 72.8 | 97.7 | 112 | 82.9 | 94.6 | 76.5 | 64.9 | 95.4 | 99.6 | 92.9 | 88.8% and 94.5% | 99.6 | 99.3 | 101 | 95.5 | residual activity (TAOK1 (human)): 70.9%; residual activity (CAMKK2 (human)): 91.7%; residual activity (CAMK1D (human)): 96.9%; residual activity (RPS6KA4 KD2 (human)): 87.5%; residual activity (LCK (human)): 86.8%; residual activity (YES1 (human)): 46.5%; residual activity (RPS6KA1 KD1 KD2 (human)): 82.6%; residual activity (FGR (human)): 63%; residual activity (EPHB4 (human)): 86%; residual activity (ADRBK2 (human)): 96.2%; residual activity (NUAK1 (human)): 19.1%; residual activity (DYRK1B (human)): 73.3%; residual activity (LYN (human)): 106% and 87.3%; residual activity (BRAF (human)): 99.3%; residual activity (NTRK2 (human)): 73.7%
2 | c1ccc(-c2cnc(Nc3ccc(OCCN4CCCC4)cc3)s2)cc1 | 92.7 | 90.8 | 95.7 | 95.5 | 98 | 120 | 101 | 78.3 | 87.2 | 92 | 95.8 | 37.2 | 96.5 | 95 | 86.6 | 96.7% and 100% | 90.9 | 91 | 90.3 | 85.3 | residual activity (EGFR (human)): 98.3%; residual activity (CAMKK2 (human)): 89.4%; residual activity (CAMK1D (human)): 101%; residual activity (RPS6KA4 KD2 (human)): 96.1%; residual activity (LCK (human)): 48.6%; residual activity (YES1 (human)): 42.1%; residual activity (RPS6KA1 KD1 KD2 (human)): 78%; residual activity (FGR (human)): 65.7%; residual activity (EPHB4 (human)): 91.9%; residual activity (ADRBK2 (human)): 103%; residual activity (NUAK1 (human)): 56.4%; residual activity (DYRK1B (human)): 95.4%; residual activity (LYN (human)): 65.1% and 87.5%; residual activity (NTRK2 (human)): 50.4%
3 | O=S(=O)(NCCNC/C=C/c1ccc(Br)cc1)c1cccc2cnccc12 | 109 | 91.6 | 85.5 | 104 | 98.2 | 98.3 | 119 | 98.9 | 91.4 | 84.6 | 91.3 | 84.4 | 97.8 | 94.3 | 90.8 | 26.3% and 41.1% | 93.9 | 97.5 | 72.1 | 95.9 | residual activity (TAOK1 (human)): 101%; residual activity (CAMKK2 (human)): 95.6%; residual activity (CAMK1D (human)): 85.5%; residual activity (RPS6KA4 KD2 (human)): 38.8%; residual activity (LCK (human)): 103%; residual activity (YES1 (human)): 91.6%; residual activity (RPS6KA1 KD1 KD2 (human)): 68.4%; residual activity (FGR (human)): 106%; residual activity (EPHB4 (human)): 108%; residual activity (ADRBK2 (human)): 101%; residual activity (NUAK1 (human)): 32.8%; residual activity (DYRK1B (human)): 95.3%; residual activity (LYN (human)): 101% and 126%; residual activity (BRAF (human)): 99.8%; residual activity (NTRK2 (human)): 95.1%
4 | O=C(c1ccccc1)c1ccc(N2CCOCC2)cc1O | 94.1 | 86.2 | 100 | 100 | 99.1 | 98.9 | 94.8 | 96.7 | 99.2 | 94.2 | 99.6 | 105 | 93.9 | 92.9 | 108 | 86.8% and 96.4% | 101 | 95.5 | 102 | 110 | residual activity (EGFR (human)): 94.9%; residual activity (TAOK1 (human)): 100%; residual activity (CAMKK2 (human)): 111%; residual activity (CAMK1D (human)): 99.1%; residual activity (RPS6KA4 KD2 (human)): 105%; residual activity (LCK (human)): 101%; residual activity (YES1 (human)): 103%; residual activity (RPS6KA1 KD1 KD2 (human)): 96.2%; residual activity (FGR (human)): 104%; residual activity (ADRBK2 (human)): 103%; residual activity (NUAK1 (human)): 94.9%; residual activity (DYRK1B (human)): 105%; residual activity (LYN (human)): 100% and 105%; residual activity (NTRK2 (human)): 92.7%

Reference: the kinase profiling compilation of Christmann-Franck et al. (2016)
